We go through 53 molecules from ChEMBL document CHEMBL3351438, “Further optimization of the M5 NAM MLPCN probe ML375: tactics and challenges” (Bioorg Med Chem Lett, 2015).

The target of data set [1] is T1, Muscarinic acetylcholine receptor M5 (Homo sapiens, UniProt P08912).
T1 sequence (P08912 whole entry): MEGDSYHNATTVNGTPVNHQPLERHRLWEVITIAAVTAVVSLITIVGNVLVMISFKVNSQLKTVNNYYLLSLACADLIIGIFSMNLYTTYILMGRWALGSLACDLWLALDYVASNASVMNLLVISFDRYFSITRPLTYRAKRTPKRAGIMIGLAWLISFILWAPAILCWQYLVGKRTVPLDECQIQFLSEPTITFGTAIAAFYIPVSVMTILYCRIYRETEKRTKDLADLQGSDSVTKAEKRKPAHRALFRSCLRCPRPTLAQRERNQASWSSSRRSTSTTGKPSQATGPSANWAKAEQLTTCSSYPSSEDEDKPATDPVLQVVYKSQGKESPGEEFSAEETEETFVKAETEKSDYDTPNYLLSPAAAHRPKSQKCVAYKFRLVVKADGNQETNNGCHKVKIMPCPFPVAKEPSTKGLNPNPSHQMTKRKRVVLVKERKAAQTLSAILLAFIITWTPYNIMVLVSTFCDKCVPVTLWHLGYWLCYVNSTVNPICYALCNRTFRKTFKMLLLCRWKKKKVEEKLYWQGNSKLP
The data set is described as follows: Negative allosteric modulation of human muscarinic acetylcholine receptor M5 expressed in CHO cells assessed as inhibition of acetylcholine-induced calcium mobilization incubated for 150 secs prior to acetylcholine induction by Fluo4AM staining-based fluorescence assay.

The nature of data set [2]: Intrinsic clearance in human hepatocytes. To be noted: read-out: CLH. Type of data set: ADME, cell-based, Hepatocyte.
Data set [3] in a line: Intrinsic clearance in rat liver microsomes. Type of data set: ADME. To be noted: read-out: CLH.
Data set [4] is described as follows: Intrinsic clearance in rat hepatocytes. Type of data set: ADME, cell-based, Hepatocyte. The conditions noted are these: read-out: CLH.
A short description of data set [5]: (§1) Fraction unbound in human plasma. Type of data set: ADME, cell-free.
Data set [6] concerns the target T2, Muscarinic acetylcholine receptor M5 (Rattus norvegicus, UniProt P08911).
T2 sequence (P08911 whole entry): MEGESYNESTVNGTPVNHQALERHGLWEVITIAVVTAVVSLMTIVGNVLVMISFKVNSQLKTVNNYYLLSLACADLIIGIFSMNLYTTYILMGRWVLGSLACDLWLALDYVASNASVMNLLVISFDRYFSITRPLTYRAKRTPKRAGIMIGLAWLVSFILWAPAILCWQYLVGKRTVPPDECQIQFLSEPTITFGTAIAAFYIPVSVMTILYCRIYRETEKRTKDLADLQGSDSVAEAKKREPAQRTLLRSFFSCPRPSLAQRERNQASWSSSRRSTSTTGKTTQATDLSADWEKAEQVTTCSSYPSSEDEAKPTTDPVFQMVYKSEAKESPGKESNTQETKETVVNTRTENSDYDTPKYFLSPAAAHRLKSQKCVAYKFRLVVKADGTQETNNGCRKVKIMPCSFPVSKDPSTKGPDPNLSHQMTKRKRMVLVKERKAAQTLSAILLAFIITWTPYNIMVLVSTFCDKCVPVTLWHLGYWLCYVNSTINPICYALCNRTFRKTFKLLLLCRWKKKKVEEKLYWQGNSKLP
The data set is described as follows: Negative allosteric modulation of rat muscarinic acetylcholine receptor M5 expressed in CHO cells assessed as inhibition of acetylcholine-induced calcium mobilization incubated for 150 secs prior to acetylcholine induction by Fluo4AM staining-based fluorescence assay. Type of data set: functional, cell-based.

In data set [7] the target is T3, Muscarinic acetylcholine receptor M5 (Homo sapiens) (UniProt P08912).
T3 sequence (whole entry): T1 sequence (P08912 whole entry)
To be noted: CHO.

For data set [8], the system named is Plasma. In words: Fraction unbound in Sprague-Dawley rat plasma. Type of data set: ADME, cell-free.
The subject of data set [9] is Plasma. The data set is described as §1. Type of data set: ADME, cell-free.

Where “and” joins values, the source holds several entries; their conditions need not be identical. Equal entries are not always repeated. Calls of active or inactive are those of the source. The calls are words filed in the database; no cut-off is given here.

Regarding `CC(C)Oc1ccc(C23c4ccccc4C(=O)N2CCN3C(=O)c2cc(F)c(F)c(F)c2)cc1` (racemic), the IC50 in [1] stood at 2400 nM.

For the molecule `O=C(c1ccc(F)nc1)N1CCN2C(=O)c3ccccc3C12c1ccc(Cl)cc1` (racemic), the IC50 in data set [1] is more than 10000 nM.

On to `[2H]C([2H])([2H])Oc1ccc([C@@]23c4ccccc4C(=O)N2CCN3C(=O)c2cc(F)c(F)c(F)c2)cc1C`, for which the CLint scaled in data set [2] was 16.3 mL/min/kg; in data set [3] it was 275 mL/min/kg; in [4] it was 55.8 mL/min/kg.

For `COc1cc(C23c4ccccc4C(=O)N2CCN3C(=O)c2ccc(OC(C)C)cc2)ccc1F` (racemic), the IC50 in data set [1] came to 1300 nM.

In the case of `COc1ccc(C23c4ccccc4C(=O)N2CCN3C(=O)c2cc(F)c(F)c(F)c2)cc1F` (racemic), the IC50 in data set [1] was more than 30000 nM.

As for `COc1cc(C23c4ccccc4C(=O)N2CCN3C(=O)c2ccc(F)c(F)c2)ccc1F` (racemic), the IC50 in data set [1] is 2700 nM.

Turning to `O=C(c1ccc(F)c(F)c1)N1CCN2C(=O)c3ccccc3C12C1CCC1` (racemic), in [1], the IC50 was more than 10000 nM.

`O=C(c1ccc(F)c(F)c1)N1CCN2C(=O)c3ccccc3C12C1CCCC1` (racemic): the IC50 in [1] worked out at 2400 nM.

As for `COc1ccc(C23c4ccccc4C(=O)N2CCN3C(=O)c2ccc(F)c(F)c2)cc1F` (racemic), the IC50 in data set [1] is 3300 nM.

On to `COc1ccc([C@]23c4ccccc4C(=O)N2CCN3C(=O)c2cc(F)c(F)c(F)c2)cc1C`, for which the IC50 result in data set [1] (cho) and in [6] (cho) was “Not Active” each time. The same molecule displayed a fraction unbound in [5] of 0.013. In addition, in data set [7], the pIC50 entry was “inactive”.

With `COc1cc(C23c4ccccc4C(=O)N2CCN3C(=O)c2ccc(OC(C)C)cc2)ccc1Cl` (racemic), in [1], the IC50 amounted to 6400 nM.

As for `O=C(c1ccc(F)c(F)c1)N1CCN2C(=O)c3ccccc3C12c1cccnc1` (racemic), the IC50 in data set [1] is more than 10000 nM.

For the molecule `O=C(c1ccc(F)c(F)c1)N1CCN2C(=O)c3ccccc3C12C1CCOCC1` (racemic), the IC50 in [1] was more than 10000 nM.

With `O=C(c1ccc(F)c(F)c1)N1CCN2C(=O)c3ccccc3C12C1CC1` (racemic), in data set [1], the IC50 was more than 10000 nM.

Turning to `O=C(c1ccc(F)c(F)c1)N1CCN2C(=O)c3ccccc3C12c1ccncc1` (racemic), the IC50 in data set [1] is more than 10000 nM.

On to `COc1cccc(C(=O)N2CCN3C(=O)c4ccccc4C23c2ccc(Cl)cc2)c1` (racemic), for which, in data set [1], the IC50 was found to be 6600 nM.

`COc1cc(C23c4ccccc4C(=O)N2CCN3C(=O)c2ccc(F)c(F)c2)ccc1Cl` (racemic): in data set [1], the IC50 was 2000 nM.

On to `CCOc1ccc(C(=O)N2CCN3C(=O)c4ccccc4C23c2ccc(Cl)cc2)cc1` (racemic), for which, in [1], the IC50 turned out to be 850 nM.

`COc1cc(C23c4ccccc4C(=O)N2CCN3C(=O)c2cc(F)c(F)c(F)c2)ccc1C` (racemic): the IC50 in data set [1] is 900 nM.

Regarding `COc1ccccc1C(=O)N1CCN2C(=O)c3ccccc3C12c1ccc(Cl)cc1` (racemic), the IC50 in data set [1] was more than 10000 nM.

With `O=C(c1ccc(F)c(F)c1)N1CCN2C(=O)c3ccccc3C12c1ccccn1` (racemic), in [1], the IC50 is more than 10000 nM.

As to `O=C(c1ccc(F)c(F)c1)N1CCN2C(=O)c3ccccc3C12c1ccc(Oc2ccccc2)cc1` (racemic), the IC50 in data set [1] is more than 10000 nM.

For the molecule `O=C(c1ccc(F)c(F)c1)N1CCN2C(=O)c3ccccc3C12C1CCCCC1` (racemic), the 50% inhibitory concentration (IC50) in data set [1] is 2100 nM. Moreover, the Fu stood at 0.016 in the data set on Plasma [8] and 0.008 in the data set with Plasma [9].

As for `CCOc1ccc(C23c4ccccc4C(=O)N2CCN3C(=O)c2ccc(OC(C)C)cc2)cc1` (racemic), the IC50 in [1] came to 4100 nM.

Regarding `CC(C)Oc1ccc(C(=O)N2CCN3C(=O)c4ccccc4C23c2ccc(OC(C)C)cc2)cc1` (racemic), the IC50 in data set [1] was found to be 1900 nM.

`COc1ccc(C23c4ccccc4C(=O)N2CCN3C(=O)c2ccc(F)c(F)c2)cc1C` (racemic): the IC50 in [1] is 1200 nM.

On to `O=C(c1ccnnc1)N1CCN2C(=O)c3ccccc3C12c1ccc(Cl)cc1` (racemic), for which the IC50 in data set [1] is more than 10000 nM.

For `COc1ccc(C23c4ccccc4C(=O)N2CCN3C(=O)c2ccc(OC(C)C)cc2)cc1Cl` (racemic), the IC50 in data set [1] stood at 3300 nM.

For `O=C(c1ccnc(F)c1)N1CCN2C(=O)c3ccccc3C12c1ccc(Cl)cc1` (racemic), in [1], the IC50 was determined as 5800 nM.

In the case of `O=C(c1cc(F)c(F)c(F)c1)N1CCN2C(=O)c3ccccc3C12c1ccc2c(c1)OCO2` (racemic), the IC50 in [1] worked out at 1000 nM.

In the case of `COc1cc(C23c4ccccc4C(=O)N2CCN3C(=O)c2ccc(F)c(F)c2)ccc1C` (racemic), in data set [1], the IC50 turned out to be 1300 nM.

As to `COc1ccc(C23c4ccccc4C(=O)N2CCN3C(=O)c2cc(F)c(F)c(F)c2)cc1Cl` (racemic), the IC50 in [1] amounted to 1400 nM.

In the case of `O=C(c1cc(F)nc(F)c1)N1CCN2C(=O)c3ccccc3C12c1ccc(Cl)cc1` (racemic), the 50% inhibitory concentration (IC50) in [1] is more than 10000 nM.

As to `COc1cccc(C23c4ccccc4C(=O)N2CCN3C(=O)c2ccc(F)c(F)c2)c1` (racemic), in data set [1], the IC50 amounted to 1600 nM.

For `O=C(c1cc(F)c(F)c(F)c1)N1CCN2C(=O)c3ccccc3C12c1ccc(Cl)cc1` (racemic), the IC50 in [1] was found to be 610 nM.

On to `COc1cc(C23c4ccccc4C(=O)N2CCN3C(=O)c2ccc(OC(C)C)cc2)ccc1C` (racemic), for which the IC50 in [1] amounted to 2200 nM.

In the case of `COc1ccccc1C12c3ccccc3C(=O)N1CCN2C(=O)c1ccc(F)c(F)c1` (racemic), in data set [1], the IC50 is 5620 nM and 5500 nM.

Turning to `COc1ccc(C23c4ccccc4C(=O)N2CCN3C(=O)c2ccc(F)c(F)c2)cc1` (racemic), the IC50 in [1] came to 1300 nM. The Fu with Plasma [8] is listed as 0.064; in the data set with Plasma [9], 0.037.

Turning to `COc1cc(C23c4ccccc4C(=O)N2CCN3C(=O)c2cc(F)c(F)c(F)c2)ccc1F` (racemic), in [1], the IC50 is 700 nM.

`O=C(c1ccc(F)c(F)c1)N1CCN2C(=O)c3ccccc3C12c1ccc(Cl)cc1` (racemic): the Fu in the data set with Plasma [8] was determined as 0.031; in the data set on Plasma [9], 0.015.

As to `COc1ccc(C(=O)N2CCN3C(=O)c4ccccc4C23c2ccc(Cl)cc2)cc1` (racemic), in data set [1], the IC50 came out at 1800 nM.

For the molecule `CC(C)Oc1ccc(C(=O)N2CCN3C(=O)c4ccccc4C23c2ccc(Cl)cc2)cc1` (racemic), the IC50 in data set [1] came to 790 nM.

Consider `COc1cc(C23c4ccccc4C(=O)N2CCN3C(=O)c2cc(F)c(F)c(F)c2)ccc1Cl` (racemic), for which the IC50 in data set [1] was 1600 nM.

`COc1ccc(C23c4ccccc4C(=O)N2CCN3C(=O)c2ccc(F)c(F)c2)cc1Cl` (racemic): in data set [1], the IC50 is 5500 nM.

For the molecule `CC(C)Oc1ccc(C(=O)N2CCN3C(=O)c4ccccc4C23c2ccc3c(c2)OCO3)cc1` (racemic), the IC50 in data set [1] came out at 1100 nM.

For the molecule `COc1ccc(C23c4ccccc4C(=O)N2CCN3C(=O)c2ccc(OC(C)C)cc2)cc1F` (racemic), the IC50 in data set [1] stood at 3200 nM.

Consider `COc1ccc(C23c4ccccc4C(=O)N2CCN3C(=O)c2cc(F)c(F)c(F)c2)cc1C` (racemic), for which the IC50 is 510 nM in data set [1] and 963 nM in data set [6] (read-out: IC50).

With `CC(C)Oc1ccc(C23c4ccccc4C(=O)N2CCN3C(=O)c2ccc(F)c(F)c2)cc1` (racemic), the IC50 in data set [1] was more than 30000 nM.

Regarding `CCOc1ccc(C23c4ccccc4C(=O)N2CCN3C(=O)c2cc(F)c(F)c(F)c2)cc1` (racemic), the IC50 in data set [1] is more than 30000 nM.

Turning to `O=C(c1ccc(F)c(F)c1)N1CCN2C(=O)c3ccccc3C12c1ccc2c(c1)OCO2` (racemic), the IC50 in data set [1] turned out to be 1300 nM.

On to `COc1ccc(C23c4ccccc4C(=O)N2CCN3C(=O)c2ccc(OC(C)C)cc2)cc1C` (racemic), for which, in data set [1], the IC50 came to 1300 nM.

With `CCOc1ccc(C23c4ccccc4C(=O)N2CCN3C(=O)c2ccc(F)c(F)c2)cc1` (racemic), the IC50 in data set [1] was 3200 nM.

Turning to `CN(C)c1ccc(C(=O)N2CCN3C(=O)c4ccccc4C23c2ccc(Cl)cc2)cc1` (racemic), in data set [1], the concentration for half-maximal inhibition (IC50) was more than 10000 nM.
